Laboratory results: patent US20240158391A1, “DERIVATIVES OF 4-(IMIDAZO[1,2-A]PYRIDIN-3-YL)-N-(PYRIDIN-3-YL) PYRIMIDIN-2- AMINE FOR TREATING PROLIFERATIVE DISEASES AND CONDITIONS” (AUCENTRA THERAPEUTICS PTY LTD, priority 2019, published 2024)

Assays:
CDK6/CyclinD3 = CDK6/CyclinD3 (Homo sapiens, UniProt Q00534); test: ADP Glo kinase assay, CDK6/CyclinD3; format: biochemical; conditions: for remaining activity at 1 µM: compound at 1 μM, read-out: Residual enzymatic activity (%) at 1 μM, CDK6 D3; for Ki: Km ATP, read-out: Enzymatic inhibition, Ki, CDK6 D3
Experimental: (§1) Test compounds are used in 1:3 serial dilutions for 10 concentrations (from 10-0.0005 μM) in 0.5% DMSO. […] The kinase reactions are run for optimised time period at room temperature and then the reaction is stopped by adding 5 μL of ADP Glo reagent.

CDK2/CyclinA2 = CDK2/CyclinA2 (Homo sapiens, UniProt P24941); test: ADP Glo kinase assay, CDK2/CyclinA2; format: biochemical; conditions: for remaining activity at 1 µM: compound at 1 μM, read-out: Residual enzymatic activity (%) at 1 μM, CDK2 A; for Ki: Km ATP, read-out: Enzymatic inhibition, Ki, CDK2 A
Experimental: as §1

CDK7/CyclinH/Mat1 = CDK7/CyclinH/Mat1 (Homo sapiens, UniProt P50613); test: ADP Glo kinase assay, CDK7/CyclinH/Mat1; format: biochemical; conditions: for remaining activity at 1 µM: compound at 1 μM, read-out: Residual enzymatic activity (%) at 1 μM, CDK7 H; for Ki: Km ATP, read-out: Enzymatic inhibition, Ki, CDK7 H
Experimental: as §1

CDK1/CyclinB = CDK1/CyclinB (Homo sapiens, UniProt P06493); test: ADP Glo kinase assay, CDK1/CyclinB; format: biochemical; conditions: for remaining activity at 1 µM: compound at 1 μM, read-out: Residual enzymatic activity (%) at 1 μM, CDK1 B; for Ki: Km ATP, read-out: Enzymatic inhibition, Ki, CDK1 B
Experimental: as §1

MV-4-11 = test: Proliferation assay (resazurin, leukemia cell lines), MV-4-11; format: cell-based; conditions: Homo sapiens, MV4-11, read-out: 72 h Growth inhibition GI50, MV-4-11 cells
From the text: The following compounds were used as comparators.

CDK4/CyclinD1 = CDK4/CyclinD1 (Homo sapiens, UniProt P11802); test: ADP Glo kinase assay, CDK4/CyclinD1; format: biochemical; conditions: for remaining activity at 1 µM: compound at 1 μM, read-out: Residual enzymatic activity (%) at 1 μM, CDK4 D1; for Ki: Km ATP, read-out: Enzymatic inhibition, Ki, CDK4 D1
Experimental: as §1

CDK9/CyclinT1 = CDK9/CyclinT1 (Homo sapiens, UniProt P50750); test: ADP Glo kinase assay, CDK9/CyclinT1; format: biochemical; conditions: for Ki: CDK9/CyclinT1, Km ATP, read-out: Enzymatic inhibition, Ki, CDK9 T1
Experimental: as §1

FLT3-ITD = biological target: T1, FLT3-ITD (Homo sapiens, UniProt P36888); test: ADP Glo kinase assay, FLT3-ITD; format: biochemical; conditions: Km ATP 100 μM, read-out: Enzymatic inhibition, Ki, FLT3-ITD
T1 sequence (P36888 1-993): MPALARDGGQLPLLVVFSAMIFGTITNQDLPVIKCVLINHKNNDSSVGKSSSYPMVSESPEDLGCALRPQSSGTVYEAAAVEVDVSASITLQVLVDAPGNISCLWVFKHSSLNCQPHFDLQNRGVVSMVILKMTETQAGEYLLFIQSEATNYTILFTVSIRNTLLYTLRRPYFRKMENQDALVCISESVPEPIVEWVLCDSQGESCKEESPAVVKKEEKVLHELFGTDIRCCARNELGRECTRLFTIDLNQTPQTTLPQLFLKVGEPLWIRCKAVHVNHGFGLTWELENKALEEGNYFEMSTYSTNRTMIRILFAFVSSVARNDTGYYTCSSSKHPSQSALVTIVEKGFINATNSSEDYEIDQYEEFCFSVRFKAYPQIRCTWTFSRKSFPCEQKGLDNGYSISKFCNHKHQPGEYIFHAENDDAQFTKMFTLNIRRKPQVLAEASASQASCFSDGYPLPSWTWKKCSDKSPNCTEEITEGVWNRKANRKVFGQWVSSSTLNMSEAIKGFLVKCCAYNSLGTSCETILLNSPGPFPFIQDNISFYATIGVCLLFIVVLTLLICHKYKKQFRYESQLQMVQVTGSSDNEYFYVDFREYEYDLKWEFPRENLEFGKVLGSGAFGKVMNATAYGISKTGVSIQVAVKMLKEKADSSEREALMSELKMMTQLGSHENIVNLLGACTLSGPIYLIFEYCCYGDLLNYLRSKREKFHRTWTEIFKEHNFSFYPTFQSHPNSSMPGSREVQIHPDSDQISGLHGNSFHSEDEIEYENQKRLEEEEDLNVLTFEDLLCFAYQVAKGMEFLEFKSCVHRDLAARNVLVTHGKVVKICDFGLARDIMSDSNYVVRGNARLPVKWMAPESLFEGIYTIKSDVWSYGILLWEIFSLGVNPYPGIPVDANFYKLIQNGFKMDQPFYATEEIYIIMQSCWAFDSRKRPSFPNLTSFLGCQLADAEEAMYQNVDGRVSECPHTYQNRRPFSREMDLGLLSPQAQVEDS
Experimental: as §1

Chain of CDK1/CyclinB (P06493 whole entry, species assumed): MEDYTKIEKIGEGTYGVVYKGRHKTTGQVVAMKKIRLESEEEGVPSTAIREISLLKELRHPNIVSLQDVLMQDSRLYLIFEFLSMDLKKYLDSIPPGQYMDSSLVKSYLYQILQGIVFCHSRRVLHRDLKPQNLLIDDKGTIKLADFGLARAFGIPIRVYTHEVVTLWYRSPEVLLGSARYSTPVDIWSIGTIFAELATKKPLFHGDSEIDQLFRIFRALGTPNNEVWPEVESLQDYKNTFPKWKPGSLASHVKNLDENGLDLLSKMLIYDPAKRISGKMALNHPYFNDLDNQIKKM
Chain of CDK1/CyclinB (P14635 whole entry partner, species assumed): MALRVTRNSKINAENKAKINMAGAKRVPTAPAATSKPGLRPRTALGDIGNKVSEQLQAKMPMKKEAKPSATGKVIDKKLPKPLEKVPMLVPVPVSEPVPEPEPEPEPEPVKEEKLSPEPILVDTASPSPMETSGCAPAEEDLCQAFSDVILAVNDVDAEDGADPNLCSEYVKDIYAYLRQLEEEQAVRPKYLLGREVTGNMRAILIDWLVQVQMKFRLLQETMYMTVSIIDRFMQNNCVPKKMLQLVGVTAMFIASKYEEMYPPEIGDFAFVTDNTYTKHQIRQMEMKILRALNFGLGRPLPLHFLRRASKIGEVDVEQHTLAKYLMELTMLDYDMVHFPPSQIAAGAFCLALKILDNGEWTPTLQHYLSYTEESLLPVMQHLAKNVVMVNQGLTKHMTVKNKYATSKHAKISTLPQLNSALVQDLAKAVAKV
Chain of CDK6/CyclinD3 (Q00534 whole entry, species assumed): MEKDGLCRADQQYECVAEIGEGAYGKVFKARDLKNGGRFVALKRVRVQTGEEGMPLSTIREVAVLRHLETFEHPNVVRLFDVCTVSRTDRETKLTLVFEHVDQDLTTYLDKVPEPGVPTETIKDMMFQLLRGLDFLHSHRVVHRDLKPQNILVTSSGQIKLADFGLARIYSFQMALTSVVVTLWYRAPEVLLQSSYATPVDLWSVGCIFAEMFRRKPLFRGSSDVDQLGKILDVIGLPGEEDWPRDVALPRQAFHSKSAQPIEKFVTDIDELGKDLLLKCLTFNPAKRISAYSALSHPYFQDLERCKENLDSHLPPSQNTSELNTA
Chain of CDK6/CyclinD3 (P30281 whole entry partner, species assumed): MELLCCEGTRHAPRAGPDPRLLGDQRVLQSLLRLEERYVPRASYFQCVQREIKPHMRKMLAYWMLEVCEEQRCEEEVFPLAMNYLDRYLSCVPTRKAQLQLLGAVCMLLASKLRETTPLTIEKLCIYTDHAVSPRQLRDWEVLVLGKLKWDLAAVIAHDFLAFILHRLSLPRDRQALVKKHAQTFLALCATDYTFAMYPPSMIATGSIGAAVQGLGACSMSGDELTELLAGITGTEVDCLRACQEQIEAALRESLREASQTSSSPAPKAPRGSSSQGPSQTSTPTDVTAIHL
Chain of CDK7/CyclinH/Mat1 (P50613 whole entry, species assumed): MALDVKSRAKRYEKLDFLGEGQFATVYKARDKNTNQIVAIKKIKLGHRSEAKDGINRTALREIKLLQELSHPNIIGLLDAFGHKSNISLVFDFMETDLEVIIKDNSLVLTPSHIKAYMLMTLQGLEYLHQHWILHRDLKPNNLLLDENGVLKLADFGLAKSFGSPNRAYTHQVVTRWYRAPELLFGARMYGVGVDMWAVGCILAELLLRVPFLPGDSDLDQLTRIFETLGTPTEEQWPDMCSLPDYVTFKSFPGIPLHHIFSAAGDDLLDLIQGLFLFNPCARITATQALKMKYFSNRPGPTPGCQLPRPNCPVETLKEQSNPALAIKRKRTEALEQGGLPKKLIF
Chain of CDK7/CyclinH/Mat1 (P51946 whole entry partner, species assumed): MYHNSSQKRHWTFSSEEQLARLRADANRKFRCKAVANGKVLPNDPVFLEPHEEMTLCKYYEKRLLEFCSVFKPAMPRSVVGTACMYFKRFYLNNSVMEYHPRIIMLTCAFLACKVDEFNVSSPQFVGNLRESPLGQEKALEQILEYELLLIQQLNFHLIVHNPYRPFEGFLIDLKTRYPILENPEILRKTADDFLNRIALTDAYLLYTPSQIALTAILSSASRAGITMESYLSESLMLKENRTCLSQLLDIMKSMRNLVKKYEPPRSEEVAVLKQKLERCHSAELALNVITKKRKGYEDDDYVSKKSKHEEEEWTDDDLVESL
Chain of CDK7/CyclinH/Mat1 (P51948 whole entry partner, species assumed): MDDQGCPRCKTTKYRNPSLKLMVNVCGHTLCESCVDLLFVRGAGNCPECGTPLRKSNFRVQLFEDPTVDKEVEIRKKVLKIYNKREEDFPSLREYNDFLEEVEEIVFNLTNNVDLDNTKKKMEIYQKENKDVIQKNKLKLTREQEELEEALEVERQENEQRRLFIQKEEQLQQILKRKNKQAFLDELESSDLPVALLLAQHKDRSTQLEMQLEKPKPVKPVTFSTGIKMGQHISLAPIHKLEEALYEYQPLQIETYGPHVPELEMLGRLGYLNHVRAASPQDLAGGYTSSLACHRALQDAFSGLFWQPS
Chain of CDK4/CyclinD1 (P11802 whole entry, species assumed): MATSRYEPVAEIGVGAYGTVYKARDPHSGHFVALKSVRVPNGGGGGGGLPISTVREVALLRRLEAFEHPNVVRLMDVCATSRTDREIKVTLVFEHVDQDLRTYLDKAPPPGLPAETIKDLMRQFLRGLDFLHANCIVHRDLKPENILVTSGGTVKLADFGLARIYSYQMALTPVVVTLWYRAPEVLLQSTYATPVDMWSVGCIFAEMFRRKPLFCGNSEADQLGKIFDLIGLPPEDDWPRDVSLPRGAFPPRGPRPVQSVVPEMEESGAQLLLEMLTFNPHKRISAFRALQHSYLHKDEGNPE
Chain of CDK4/CyclinD1 (P24385 whole entry partner, species assumed): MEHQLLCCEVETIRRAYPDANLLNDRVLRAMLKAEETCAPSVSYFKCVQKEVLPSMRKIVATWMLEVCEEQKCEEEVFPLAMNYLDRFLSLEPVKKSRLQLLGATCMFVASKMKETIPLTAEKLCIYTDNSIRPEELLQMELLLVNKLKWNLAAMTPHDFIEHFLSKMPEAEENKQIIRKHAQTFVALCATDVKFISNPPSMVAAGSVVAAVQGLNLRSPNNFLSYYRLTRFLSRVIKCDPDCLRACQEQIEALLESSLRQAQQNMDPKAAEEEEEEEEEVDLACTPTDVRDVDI
Chain of CDK9/CyclinT1 (P50750 whole entry, species assumed): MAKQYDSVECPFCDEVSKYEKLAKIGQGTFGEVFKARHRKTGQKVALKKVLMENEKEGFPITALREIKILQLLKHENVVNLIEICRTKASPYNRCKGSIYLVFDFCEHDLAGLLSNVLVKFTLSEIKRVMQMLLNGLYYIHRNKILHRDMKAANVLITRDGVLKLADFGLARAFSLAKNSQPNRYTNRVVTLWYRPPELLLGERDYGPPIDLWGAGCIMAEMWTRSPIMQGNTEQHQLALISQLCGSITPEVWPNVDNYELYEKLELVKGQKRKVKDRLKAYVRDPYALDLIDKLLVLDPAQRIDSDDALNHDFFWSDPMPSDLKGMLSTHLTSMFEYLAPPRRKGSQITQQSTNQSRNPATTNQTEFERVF
Chain of CDK9/CyclinT1 (O60563 whole entry partner, species assumed): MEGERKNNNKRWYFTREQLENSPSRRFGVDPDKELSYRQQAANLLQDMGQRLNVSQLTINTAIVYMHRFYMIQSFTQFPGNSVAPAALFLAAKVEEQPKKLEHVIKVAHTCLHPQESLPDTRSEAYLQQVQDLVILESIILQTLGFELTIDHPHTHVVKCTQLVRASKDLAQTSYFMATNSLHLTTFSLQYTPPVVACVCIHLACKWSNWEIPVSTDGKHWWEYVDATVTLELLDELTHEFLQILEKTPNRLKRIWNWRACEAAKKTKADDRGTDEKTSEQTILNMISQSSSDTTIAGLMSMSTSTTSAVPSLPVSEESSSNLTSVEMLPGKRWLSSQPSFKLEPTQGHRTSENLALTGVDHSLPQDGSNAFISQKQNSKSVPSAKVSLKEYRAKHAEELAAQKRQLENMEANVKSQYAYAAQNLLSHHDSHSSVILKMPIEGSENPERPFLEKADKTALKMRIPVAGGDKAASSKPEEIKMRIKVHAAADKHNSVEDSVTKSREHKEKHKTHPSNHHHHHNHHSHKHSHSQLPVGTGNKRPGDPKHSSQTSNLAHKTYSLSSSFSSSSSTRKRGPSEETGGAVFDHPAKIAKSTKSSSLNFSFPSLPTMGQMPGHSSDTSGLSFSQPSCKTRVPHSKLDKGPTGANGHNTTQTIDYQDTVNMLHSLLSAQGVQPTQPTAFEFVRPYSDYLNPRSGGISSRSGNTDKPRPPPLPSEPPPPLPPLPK

remaining activity at 1 µM (CDK6/CyclinD3)	remaining activity at 1 µM (CDK2/CyclinA2)	remaining activity at 1 µM (CDK7/CyclinH/Mat1)	remaining activity at 1 µM (CDK1/CyclinB)	GI50 (MV-4-11)	remaining activity at 1 µM (CDK4/CyclinD1)	Ki (CDK9/CyclinT1)	Ki (FLT3-ITD)	Ki (CDK6/CyclinD3)	Ki (CDK2/CyclinA2)	Ki (CDK7/CyclinH/Mat1)	Ki (CDK1/CyclinB)	Ki (CDK4/CyclinD1)	Structure (SMILES)	inhibition of CDK9 (in words) (CDK9/CyclinT1; compared with comparator compounds A, B and C (N-(pyridin-2-yl)pyrimidin-2-amine moiety))
				10 nM		77 nM	7 nM	2090 nM	124 nM		153 nM	718 nM	CS(=O)(=O)N1CCN(c2ccc(Nc3nccc(-c4cnc5ccc(Br)cn45)n3)cn2)CC1 [Compound 16, 4-(6-Bromoimidazo[1,2-a]pyridin-3-yl)-N-(6-(4-(methylsulfonyl)piperazin-1-yl)pyridin-3-yl)pyrimidin-2-amine]	
46%	26%		67%	181 nM	72%	20 nM	23 nM						CN1CCN(c2ccc(Nc3nccc(-c4cnc5ccc(-c6cnc(N)nc6)cn45)n3)cn2)CC1 [Compound 23, 4-(6-(2-Aminopyrimidin-5-yl)imidazo[1,2-a]pyridin-3-yl)-N-(6-(4-methylpiperazin-1-yl)pyridin-3-yl)pyrimidin-2-amine]	
				33 nM	21%	4 nM	8 nM		42 nM		29 nM		CN1CCN(c2ccc(Nc3nccc(-c4cnc5ccc(-c6cn[nH]c6)cn45)n3)cn2)CC1 [Compound 24, 4-(6-(1H-Pyrazol-4-yl)imidazo[1,2-a]pyridin-3-yl)-N-(6-(4-methylpiperazin-1-yl)pyridin-3-yl)pyrimidin-2-amine]	
				4 nM		4 nM	16 nM		15 nM	84 nM	48 nM	34 nM	Cc1ccc2ncc(-c3ccnc(Nc4ccc(N5CCN(C)CC5)nc4)n3)n2c1 [Compound 35, 4-(6-Methylimidazo[1,2-a]pyridin-3-yl)-N-(6-(4-methylpiperazin-1-yl)pyridin-3-yl)pyrimidin-2-amine]	
				39 nM		10 nM	10 nM	295 nM	44 nM		145 nM	49 nM	CC(C)N1CCN(c2ccc(Nc3nccc(-c4cnc5ccc(Br)cn45)n3)cn2)CC1 [Compound 38, 4-(6-Bromoimidazo[1,2-a]pyridin-3-yl)-N-(6-(4-isopropylpiperazin-1-yl)pyridin-3-yl)pyrimidin-2-amine]	
57%	55%	40%	32%	8 nM		7 nM	12 nM						CN1CCN(c2ccc(Nc3nccc(-c4cnc5ccc(-c6cnn(C(F)F)c6)cn45)n3)cn2)CC1 [Compound 70, 4-(6-(1-(Difluoromethyl)-1H-pyrazol-4-yl)imidazo[1,2-a]pyridin-3-yl)-N-(6-(4-methylpiperazin-1-yl)pyridin-3-yl)pyrimidin-2-amine]	
97%	74%	91%	95%	12 nM		> 500 nM	24 nM						O=C1NCCC12CCN(c1ccc(Nc3nccc(-c4cnc5ccc(Br)cn45)n3)cn1)CC2 [Compound 71, 8-(5-((4-(6-Bromoimidazo[1,2-a]pyridin-3-yl)pyrimidin-2-yl)amino)pyridin-2-yl)-2,8-diazaspiro[4.5]decan-1-one]	
73%	64%	59%	75%	5 nM		> 500 nM	55 nM						O=C1NCCC12CCN(c1ccc(Nc3nccc(-c4cnc5ccc(-c6ccccc6)cn45)n3)cn1)CC2 [Compound 72, 8-(5-((4-(6-Phenylimidazo[1,2-a]pyridin-3-yl)pyrimidin-2-yl)amino)pyridin-2-yl)-2,8-diazaspiro[4.5]decan-1-one]	

Continued, compound first:

Structure (SMILES)	remaining activity at 1 µM (CDK6/CyclinD3)	remaining activity at 1 µM (CDK2/CyclinA2)	remaining activity at 1 µM (CDK7/CyclinH/Mat1)	remaining activity at 1 µM (CDK1/CyclinB)	GI50 (MV-4-11)	remaining activity at 1 µM (CDK4/CyclinD1)	Ki (CDK9/CyclinT1)	Ki (FLT3-ITD)	Ki (CDK6/CyclinD3)	Ki (CDK2/CyclinA2)	Ki (CDK7/CyclinH/Mat1)	Ki (CDK1/CyclinB)	Ki (CDK4/CyclinD1)	inhibition of CDK9 (in words) (CDK9/CyclinT1; compared with comparator compounds A, B and C (N-(pyridin-2-yl)pyrimidin-2-amine moiety))
CN1CCN(c2ccc(Nc3nccc(-c4cnc5ccc(-c6cnn(C)c6)cn45)n3)nc2)CC1 [Comparator compound B, 4-(6-(1-methyl-1H-pyrazol-4-yl)imidazo[1,2-a]pyridin-3-yl)-N-(5-(4-methylpiperazin-1-yl)pyridin-2-yl)pyrimidin-2-amine, reference compound]	87%	99%	70%	98%	7 nM	76%	> 500 nM							
CN1CCN(c2ccc(Nc3nccc(-c4cnc5ccc(-c6cccnc6)cn45)n3)nc2)CC1 [Comparator compound C, N-(5-(4-methylpiperazin-1-yl)pyridin-2-yl)-4-(6-(pyridin-3-yl)imidazo[1,2-a]pyridin-3-yl)pyrimidin-2-amine, reference compound]	87%	94%	75%	67%		76%	140 nM							
CN1CCN(c2ccc(Nc3nccc(-c4cnc5ccccn45)n3)cn2)CC1 [Compound 1, 4-(Imidazo[1,2-a]pyridin-3-yl)-N-(6-(4-methylpiperazin-1-yl)pyridin-3-yl)pyrimidin-2-amine]					1 nM		2 nM	2 nM	43 nM	59 nM	1090 nM	141 nM	8 nM	
Cc1nc2ccc(F)cn2c1-c1ccnc(Nc2ccc(N3CCN(C)CC3)nc2)n1 [Compound 2, 4-(6-Fluoro-2-methylimidazo[1,2-a]pyridin-3-yl)-N-(6-(4-methylpiperazin-1-yl)pyridin-3-yl)pyrimidin-2-amine]					78 nM		168 nM	3 nM	54 nM	63 nM	560 nM	152 nM	55 nM	
Cc1cnc(Nc2ccc(N3CCN(C)CC3)nc2)nc1-c1cnc2ccccn12 [Compound 3, 4-(Imidazo[1,2-a]pyridin-3-yl)-5-methyl-N-(6-(4-methylpiperazin-1-yl)pyridin-3-yl) pyrimidin-2-amine]					32 nM		136 nM	9 nM	522 nM	83 nM	2900 nM	505 nM	46 nM	
Fc1cnc(Nc2cccnc2)nc1-c1cnc2ccccn12 [Compound 4, 5-Fluoro-4-(imidazo[1,2-a]pyridin-3-yl)-N-(pyridin-3-yl)pyrimidin-2-amine]					57 nM		41 nM	224 nM	2900 nM	1 nM	2540 nM	2 nM	74 nM	
CN1CCN(c2ccc(Nc3nccc(-c4cnc5ccc(-c6cnn(C)c6)cn45)n3)cn2)CC1 [Compound 9, 4-(6-(1-Methyl-1H-pyrazol-4-yl)imidazo[1,2-a]pyridin-3-yl)-N-(6-(4-methylpiperazin-1-yl)pyridin-3-yl)pyrimidin-2-amine]					10 nM		2 nM	15 nM		1030 nM		645 nM	> 500 nM	dramatically and surprisingly increased the potency of inhibition of CDK9
